From PMC5622107, “Small molecule inhibition of cGAS reduces interferon expression in primary macrophages from autoimmune mice” (Nature Communications, 2017)
Like-named read-outs stand apart in the source and are kept apart here.

What was measured:
mouse cGAS = molecular target: T1, mouse cGAS (Mus musculus, UniProt Q8C6L5); test: RapidFire mass spectrometry (RF-MS) cGAS enzymatic assay, cGAMP product formation; type: biochemical; conditions: for inhibition at 12.5 µM: read-out: % inhibition at 12.5 µM
T1 construct: recombinant full-length mouse cGAS in reaction buffer; His6-SUMO (N, cleaved yes); made in house; host or cells: E. coli BL21(DE3) RIL
Description: The liquid was collected at the well bottom using centrifugation for 30 s at 180×g. […] Plates were centrifuged for 30 s at 180×g to collect all liquid at the bottom of the wells. […] The reaction was stopped by addition of 65 µl of 0.5% (v/v) formic acid per well. The plates were centrifuged for 30 s at 180×g and sealed with a Velocity11 PlateLoc thermal plate sealer.
The solvent used for loading/washing process was an aqueous solution of 5 mM ammonium acetate, pH 10. […] Each sample of approximately 35 µl were aspirated from a 384-well plate and separated using a Graphitic carbon Type D cartridge. After each sample was loaded onto the cartridge it was washed for 4 s at 1.5 ml min^−1 using the aqueous solvent. ATP, GTP and cGAMP were eluted for 5 s using the organic solvent at a flow rate of 1.5 ml min^−1. The cartridge was then re-equilibrated with the aqueous solvent for 5 s at a flow rate of 1.5 ml min^−1. All samples were analyzed using a negative ionization mode in the mass spectrometer, with a gas temperature of 350 °C, nebulizer pressure of 35 psig, gas flow rate of 15 l min^−1. […] The Agilent RapidFire Integrator software was used to calculate the area under the curve (AUC) of the extracted ion counts for each analyte. Data points represent values of product formation. Catalytic rates expressed as percent product formation were calculated using the AUC of cGAMP and using the AUC’s of ATP and GTP to normalize for variations in the capacity of the solid phase extraction column during a screening run, as shown in the following formula: product formation (%) = [(AUCcGAMP × 100)/(AUCcGAMP + ½ AUCATP + ½ AUCGTP)].
To determine the percent inhibition of mouse cGAS the data was normalized against the positive control (column 24) and negative control (column 23). […] The quality of the screen was assessed by Z′ factor[57] calculated as follows: Z′ = 1−[3∗(standard deviation positive control + standard deviation negative control)/(average positive control—average negative control)].

45-bp dsDNA = test: DNA intercalation: acridine orange displacement from dsDNA by fluorescence polarization; type: binding; conditions: Supplementary Table 2; for % intercalation at 30 µM: acridine orange displacement compared to mitoxantrone; for Polarization: compound 30 µM
Description: Ten microliters of HEN buffer (10 mM HEPES pH 7.5, 1 mM EDTA pH 7.5, 100 mM NaCl) were dispensed per well using a Thermo Multidrop Combi dispenser (Thermo Scientific). The liquid was collected at the well bottom using centrifugation for 30 s at 180×g. […] The final concentration of compounds in the assay was 30 µM. […] The liquid was collected at the well bottom using centrifugation for 30 s at 180×g. […] The liquid was collected at the well bottom using centrifugation for 30 s at 180 × g and the plates were incubated for 30 min. Mitoxantrone, a known DNA intercalator was used at 50 µM as a positive control, while DMSO alone was used as negative control. FP was measured using a Biotek Synergy Neo plate reader. […] All FP values are expressed in millipolarization (mP) units. The mP values were calculated using the equation mP = 1000 × [(I S−I SB)−(I P−I PB)]/[I S—I SB) + (I P−I PB)], where I S and […] to the parallel and perpendicular emission intensity, respectively, and I SB and I SP corresponds to parallel emission intensity perpendicular emission intensity of the buffer, respectively. The experimental G-factor, defined as G = I S/I P, was set to 1.0 in all experiments.

[1] = Supplementary Table 2, batch of compounds stored in the screening library, read-out: IC50
[2] = Supplementary Table 2, compound 12.5 µM

T1 sequence (Q8C6L5 whole entry): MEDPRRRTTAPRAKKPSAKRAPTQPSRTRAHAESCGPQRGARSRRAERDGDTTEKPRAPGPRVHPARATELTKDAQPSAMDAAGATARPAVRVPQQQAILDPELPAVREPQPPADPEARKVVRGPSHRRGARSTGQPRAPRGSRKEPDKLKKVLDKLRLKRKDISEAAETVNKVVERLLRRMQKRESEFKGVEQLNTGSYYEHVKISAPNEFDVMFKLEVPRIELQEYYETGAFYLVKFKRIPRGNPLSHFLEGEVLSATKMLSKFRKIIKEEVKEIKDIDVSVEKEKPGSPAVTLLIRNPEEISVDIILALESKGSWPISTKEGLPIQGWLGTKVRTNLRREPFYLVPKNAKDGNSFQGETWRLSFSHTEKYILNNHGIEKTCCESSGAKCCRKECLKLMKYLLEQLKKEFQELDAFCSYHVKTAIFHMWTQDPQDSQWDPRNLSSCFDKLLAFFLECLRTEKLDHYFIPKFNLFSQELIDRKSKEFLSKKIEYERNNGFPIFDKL

Row | IC50 (mouse cGAS; [1]) [µM] | inhibition at 12.5 µM (mouse cGAS; [2]) [%] | Polarization (45-bp dsDNA) [mP] | IC50 (mouse cGAS; Fig. 1e, four prioritized screening hits, confirmed with independent lots of compound, read-out: IC50) [µM] | Compound | % intercalation at 30 µM (45-bp dsDNA) [%] | % inhibition at 12.5 µM (mouse cGAS; [2]) [%] | IC50 (mouse cGAS) [µM]
1 | 6.12 | 92 | 288 | – | S=c1[nH]nc(-c2sc3ccccc3c2Cl)o1 [RU3433] | – | – | –
2 | 6.42 | 62 | 254 | – | CCOC(=O)c1n[nH]c2c1C(=O)N(CC)C2=O [RU4893] | -1.4 | – | –
3 | 6.49 | 90 | 255 | – | O=c1[nH]n2c(=O)c3ccccc3nc2c2ccccc12 [RU5004] | -2.1 | – | –
4 | 3 | 87 | 264 | – | O=C(O)C1CSC(c2cc(Br)c(O)c(Br)c2)N1 (centres unmarked) [RU5512] | -6.3 | – | –
5 | 7.99 | 69 | 252 | – | Cc1nc2nc(C)c(Br)c(O)n2n1 [RU6753] | -0.5 | – | –
6 | 1.45 | 90 | 72 | – | CC(=O)[C@]1(O)Cc2c(O)c3c(c(O)c2[C@@H](O[C@H]2C[C@H](N)[C@H](O)[C@H](C)O2)C1)C(=O)c1ccccc1C3=O [RU84314] | 87.2 | – | –
7 | 9.11 | 91 | 263 | – | N#CCC(=O)Nc1sc2c(c1C(N)=O)CCCC2 [RU93687] | -5.8 | – | –
8 | 8.14 | 64 | 267 | – | CC(C)OC(=O)C(C#N)=Cc1ccc([N+](=O)[O-])o1 [RU94102] | -8.1 | – | –
9 | 8.66 | 62 | 266 | – | N#CC1=C(N)SC(N)=C(C#N)C1c1ccc([N+](=O)[O-])cc1 [RU107796] | -7.6 | – | –
10 | 5.38 | 72 | 271 | 1.4 | O=C(CCl)Nc1nc(-c2c[nH]c3ccccc23)cs1 [RU114757] | -10.1 | – | –
11 | 6.51 | 63 | 271 | – | O=C1NC(=S)SC1=Cc1ccccc1F [RU116287] | -9.8 | – | –
12 | 4.25 | 89 | 266 | – | CCC1=NN2C(=N)/C(=C/c3ccc(O)cc3)C(=O)N=C2S1 [RU169196] | -7.5 | – | –
13 | 3.34 | 97 | 262 | – | CCC1=NN2C(=N)/C(=C/c3cccs3)C(=O)N=C2S1 [RU169248] | -5.7 | – | –
14 | 0.25 | 90 | 251 | – | Cc1ccc(C(=O)c2nc3c(n2O)CCCCC3)cc1 [RU171395] | -0.3 | – | –
15 | 7.47 | 76 | 239 | – | Cc1nnc(NC(=O)c2ccc(S(=O)(=O)Nc3cccc(C(F)(F)F)c3)o2)s1 [RU174368] | 5.6 | – | –
16 | 6.09 | 70 | 276 | – | NC(=O)N1C(=O)/C(=C(\O)c2cccs2)c2cc(Cl)ccc21 [RU187170] | – | – | –
17 | 0.58 | 95 | 256 | – | N#Cc1cc(I)c(O)c([N+](=O)[O-])c1 [RU187299] | -2.8 | – | –
18 | 6.62 | 86 | 274 | – | O=C(Nc1ncc([N+](=O)[O-])s1)c1cccs1 [RU187339] | – | – | –
19 | 9.09 | 71 | 253 | – | O=C(Nc1nncs1)c1cn(-c2ccccc2Br)nn1 [RU191669] | -1.0 | – | –
20 | 6.33 | 63 | 263 | – | N#Cc1ccc(/C=C2\CS(=O)(=O)c3c(F)cccc3C2=O)cc1 [RU198755] | -6.2 | – | –
21 | 9.69 | 70 | 274 | – | O=C1CN2C(=C1c1ccccc1)NC(=O)c1sc3ccccc3c12 [RU207450] | – | – | –
22 | 4.68 | 67 | 272 | – | CS(=O)(=O)c1ncc2c(n1)c(=O)c(C#N)c1[nH]c3ccccc3c(=O)n12 [RU207488] | – | – | –
23 | 4.44 | 91 | 251 | – | COC(=O)C1=NN2C(=NS(=O)(=O)c3ccccc32)N1 [RU209189] | 0.0 | – | –
24 | 1.27 | 94 | 253 | – | OCc1cn(-c2ccccc2Cl)nn1 [RU219771] | -1.3 | – | –
25 | 6.76 | 89 | 270 | – | O=c1cc(CCn2cccn2)nc(-c2ccc(CN3CCC[C@@H]3CO)cc2)[nH]1 [RU234543] | -9.3 | – | –

Row | Compound | IC50 (mouse cGAS; [1]) [µM] | inhibition at 12.5 µM (mouse cGAS; [2]) [%] | Polarization (45-bp dsDNA) [mP] | IC50 (mouse cGAS; Fig. 1e, four prioritized screening hits, confirmed with independent lots of compound, read-out: IC50) [µM] | % intercalation at 30 µM (45-bp dsDNA) [%] | % inhibition at 12.5 µM (mouse cGAS; [2]) [%] | IC50 (mouse cGAS) [µM]
26 | CC[C@@]1(O)C[C@H](O[C@H]2C[C@H](N(C)C)[C@H](O)[C@H](C)O2)c2c(cc3c(c2O)C(=O)c2c(O)cccc2C3=O)[C@H]1C(=O)OC [RU891] | 1.42 | 98 | 65 | – | 90.6 | – | –
27 | O=C(O)COc1cc(Cl)c(Cl)cc1Cl [RU1535] | 0.55 | 98 | 244 | – | 3.4 | – | –
28 | CCOc1ccc2nc3cc(N)ccc3c(N)c2c1 [RU1667] | 1.01 | – | 139 | – | 54.5 | 92 | –
29 | COc1cccc2c1C(=O)c1c(O)c3c(c(O)c1C2=O)C[C@@](O)(C(=O)CO)C[C@@H]3O[C@H]1C[C@H](N)[C@H](O)[C@H](C)O1 [RU24114] | – | 96 | 53 | – | – | – | 0.82
30 | COc1cccc2c1C(=O)c1c(O)c3c(c(O)c1C2=O)C[C@@](O)(C(C)=O)C[C@@H]3OC1CC(N)C(O)C(C)O1 (some centres unmarked) [RU24146] | 0.69 | 93 | 55 | – | – | – | –
31 | COc1cccc2c1C(=O)c1c(O)c3c(c(O)c1C2=O)C[C@@](O)(C(C)=O)C[C@@H]3O[C@H]1C[C@H](N)[C@H](O)[C@H](C)O1 [RU83653] | 1.81 | 91 | 50 | – | 98.0 | – | –
32 | COc1cccc2c1C(=O)c1c(O)c3c(c(O)c1C2=O)C[C@@](O)(C(=O)CO)C[C@@H]3O[C@H]1C[C@H](N)[C@@H](O)[C@H](C)O1 [RU162145] | – | 98 | 53 | – | 96.5 | – | 0.58
33 | N=C(N)NN=C1C=CC(=NNC(N)=S)C=C1 [RU187428] | – | 79 | 164 | – | – | – | 9.93
